Where no end group is shown, it is not given here.
How the values were obtained:
mice = assay: mouse IV toxicity studies (pilot single dose, GLP 14-day, acute); type: in vivo
Procedure: Two pilot and 2 definitive repeat-dose toxicity studies were conducted with RIVPA (SEQ ID NO. 5) in mice and cynomolgus monkeys using the intravenous (IV; slow bolus) route of administration. All studies were conducted by LAB Research Inc., Canada.
These resolved within a few minutes without detectable residual effects.
The safety of multiple daily injections of RIVPA (SEQ ID NO. 5) has also been evaluated in GLP studies in mice and cynomolgus monkeys. In mouse, doses of 20, 60, or 90 mg/kg/day were given IV for 14 days.
The observed respiratory depression occurred at different dose levels in different species, and was not predicted by allometric scaling. In particular, the mouse appeared to be the most sensitive species with acute toxicity occurring rarely at 60 mg/kg (HED: ^˜5 mg/kg) and commonly at 90 mg/kg (HED: ^˜7 mg/kg). In contrast in NHP (cynomologus monkey), acute toxicity occurred occasionally at 160 mg/kg (HED: ^˜50 mg/kg) and consistently at 240 mg/kg (HED: ^˜78 mg/kg).

[1] = test system: CNS receptors and ion channels; assay: battery of CNS receptors and ion channels in vitro; type: binding
Procedure: No effects of RIVPA (SEQ ID NO. 5) have been observed on the central nervous system (CNS) in any study at any dose level and little or no radiolabelled RIVPA (SEQ ID NO. 5) was found in the mouse CNS at dose levels of either 20 or 90 mg/kg.

CD-1 mice = assay: recovery of circulating blood cells after induction of leukopenia; type: in vivo, mouse; conditions: Cp-induced leukopenia, 20 or 50 mg/kg IV on Days 5, 7, 9 and 11
Procedure: Leukopenia was induced with 2 IP injections of Cp (150 mg/kg on Day 1 and 100 mg/kg on Day 4), resulting in well-established leukopenia by Day 4 that persisted until approximately Day 10. Saline or RIVPA (SEQ ID NO. 5) (20 or 50 mg/kg) was administered IV on Days 5, 7, 9 and 11. Six animals per group were sacrificed on each of Days 6, 8, 10, 12 and 14 and evaluated for complete blood count and differential. Neither the levels nor dynamics of the total leukocyte and differential white blood cell counts were altered during the course of recovery when compared to the vehicle control group (FIG. 15).

MRSA = MRSA skin infection model; type: in vivo, mouse
Procedure: Infection was initiated 1 day after the hair was removed from the dorsal area of each mouse. RIVPA (SEQ ID NO. 5) (25 mg/kg IV or 100 mg/kg SC) was administered 4 h prior to infection and at various times after infection as indicated. Oral linezolid was used as the comparator and was administered daily at 12.5 mg/kg. On Day 0 (at −1 h) each mouse was anesthetized using isoflurane and the shaved dorsal skin was damaged by 7 consecutive applications and removals of surgical tape. This lesion was then immediately infected by topical administration of 10 μL of the bacterial suspension, delivering a total challenge of 7.6 login cfu per mouse. Efficacy was evaluated by measurement of the bacterial burden in punch biopsies of the skin at 48 h (FIG. 14—panel A) and 96 h (FIG. 14—panel B) following the bacterial challenge and by macroscopic assessment of digital images of the skin by a blinded, board-certified pathologist at 48 h (FIG. 14—panel C) and 96 h (FIG. 14—panel D) after infection. […] The mean bacterial burden for each therapeutic group was statistically compared to that of its time-matched saline control through use of a t-test comparison of means, assuming unequal variances, performed on Excel. Comparisons which returned a p value […] were considered statistically different.

[2] = test system: male Golden Syrian hamsters; assay: radiation-induced oral mucositis in hamsters (fractionated radiation); type: in vivo, hamster; conditions: for duration of severe oral mucositis: fractionated radiation model
Procedure: These studies confirmed that optimal dosing of RIVPA (SEQ ID NO. 5) involves dosing every third day and that the 25 mg/kg dose level is effective. In this model, cannulated male Golden Syrian hamsters were treated with 7.5 Gy of radiation, directed at the everted left cheek pouch, on Days 0, 1, 2, 3, 6, 7, 8 and 9. Mucositis was evaluated every second day between Days 7 and 35, with peak mucositis severity generally occurring around Day 19. In the first study, RIVPA (SEQ ID NO. 5) (25 mg/kg IV) was administered either every third day starting on Day 0 and continuing until Day 33 (Q3d d0-33), or on days of radiation therapy (Days 0, 1, 2, 3, […], 7, 8, 9) or every third day starting on Day 6 and continuing to Day 24 (Q3d d6-24). On days where both RIVPA (SEQ ID NO. 5) and radiation was administered, RIVPA (SEQ ID NO. 5) was given 2 hours after radiation. […] A follow-up study was undertaken to evaluate dosing with 25 mg/kg IV RIVPA (SEQ ID NO. 5) Q3d d0-33, on days of radiation, or every third day during radiation treatment (i.e., Days 0, 3, 6 and 9).

[3] = test system: S. aureus (Catalog No. 29213, ATCC); assay: S. aureus thigh abscess infection model in neutropenic mice; type: in vivo, mouse; conditions: neutropenic female Swiss albino mice, 50 mg/kg IM 24 h prior to infection; 24 h after infection
Procedure: Female Swiss albino mice (N=8/group) were rendered neutropenic by treatment with Cp (100 mg/kg), 3 and 1 days before IM infection with S. aureus (Catalog No. 29213, ATCC, ^˜9.5×10^5 cfu). RIVPA (SEQ ID NO. 5) (50 mg/kg) was administered IM 24 h prior to infection and vancomycin (100 mg/kg) was administered SC at 1, 6 and 18 h after infection. The number of bacterial cfu present in the infected thigh was assessed 24 h after initiation of infection in each group.

**Q.** Which results are given for RIVPA-NH2 [RIVPA (SEQ ID NO. 5), RIVPA]?
**A.** immune-related organ weights, histopathology, hematology and clinical chemistry (mice; mouse 14-day toxicity study): no changes were observed; adverse effects (mice; mouse, 20 mg/kg for 14 days): No adverse effects were observed; mortality or clinical signs (mice; mouse, 20 mg/kg/day IV for 14 days): No test article-related mortality or clinical signs; HED of acutely toxic dose (mice; mouse, 60 mg/kg): ~5 mg/kg; occurrence of acute toxicity (respiratory depression) (mice; mouse, 60 mg/kg): rarely; mortality (mice; mouse, 60 mg/kg/day IV for 14 days): Lethality was also observed in 1 animal; HED of acutely toxic dose (mice; mouse, 90 mg/kg): ~7 mg/kg; occurrence of acute toxicity (respiratory depression) (mice; mouse, 90 mg/kg): commonly; mortality (mice; mouse, 90 mg/kg/day IV for 14 days): Deaths were observed; organ toxicity, biochemistry, hematology (mice; mouse, survivors of all groups, 14 days): no evidence of toxicity in any organ or abnormal biochemistry or hematology; interaction with CNS receptors and ion channels [1]: No interaction was detected; recovery of circulating blood cell populations after induction of leukopenia (CD-1 mice): did not alter; skin healing (MRSA; 25 mg/kg IV or 100 mg/kg SC, 4 h prior to infection and after): accelerating skin healing; bacterial load in skin punch biopsies relative to control (MRSA; 48 or 96 h after bacterial challenge): neither linezolid nor RIVPA (SEQ ID NO. 5) reduced bacterial load; resolution of tissue damage in topically MRSA-infected skin (MRSA; FIG. 14): enhances; treatment effectiveness on mucositis ([2]; first study, 25 mg/kg IV every third day Day 0 to Day 33 (Q3d d0-33)): most effective; treatment effectiveness on mucositis ([2]; first study, 25 mg/kg IV every third day Day 6 to Day 24 (Q3d d6-24)): not beneficial; treatment effectiveness on mucositis ([2]; first study, 25 mg/kg IV on days of radiation): most effective; treatment effectiveness on mucositis ([2]; follow-up study, 25 mg/kg IV every third day during radiation (Days 0, 3, 6 and 9)): optimal; duration of severe oral mucositis ([2]; FIG. 1): reduces; duration of severe oral mucositis ([2]; optimized dosing regimen, FIG. 2): reduces; severity and duration of mucositis ([2]; hamster, 7.5 Gy to left cheek pouch on Days 0, 1, 2, 3, 6, 7, 8 and 9, RIVPA IV): significantly reduced; bacterial load in the infected thigh [3]: significantly reduced

— patent US11311598B2, “Peptides and analogs for use in the treatment of oral mucositis” (Soligenix, Inc., priority 2013, dated 2022)
